Test results reported in patent publication US20230310428A1, “EGFR INHIBITOR AND PREPARATION METHOD AND USE THEREOF” (HONGYUN BIOTECH CO., LTD., priority 2020, published 2023).
Like-named read-outs stand apart in the source and are kept apart here.

Assays:
Experiment in all cases: Growth inhibitory activity of compounds on BaF3 cell lines stably transfected with kinase (MTS, 48 h)
Format in all cases: cell-based
[1] = target: T1, various mutants of kinase EGFR (BaF3 cell lines stably transfected with kinase) (Homo sapiens, UniProt P00533, L858R)
T1 construct: expressed in transfected cells; host or cells: BaF3
Summary of the method: (§1)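 Growth is measured by MTS reduction (OD 490 nm) after 48 h compound exposure at up to 10 µM in 8 steps of 1/3. Inhibition is calculated against a 0.1% DMSO control and cell-free blank, and IC50 is derived from it.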

[2] = target: T2, various mutants of kinase EGFR (BaF3 cell lines stably transfected with kinase) (Homo sapiens, UniProt P00533, L858R/T790M)
T2 construct: expressed in transfected cells; host or cells: BaF3
T2 sequence (P00533 25-1210 T790M/L858R): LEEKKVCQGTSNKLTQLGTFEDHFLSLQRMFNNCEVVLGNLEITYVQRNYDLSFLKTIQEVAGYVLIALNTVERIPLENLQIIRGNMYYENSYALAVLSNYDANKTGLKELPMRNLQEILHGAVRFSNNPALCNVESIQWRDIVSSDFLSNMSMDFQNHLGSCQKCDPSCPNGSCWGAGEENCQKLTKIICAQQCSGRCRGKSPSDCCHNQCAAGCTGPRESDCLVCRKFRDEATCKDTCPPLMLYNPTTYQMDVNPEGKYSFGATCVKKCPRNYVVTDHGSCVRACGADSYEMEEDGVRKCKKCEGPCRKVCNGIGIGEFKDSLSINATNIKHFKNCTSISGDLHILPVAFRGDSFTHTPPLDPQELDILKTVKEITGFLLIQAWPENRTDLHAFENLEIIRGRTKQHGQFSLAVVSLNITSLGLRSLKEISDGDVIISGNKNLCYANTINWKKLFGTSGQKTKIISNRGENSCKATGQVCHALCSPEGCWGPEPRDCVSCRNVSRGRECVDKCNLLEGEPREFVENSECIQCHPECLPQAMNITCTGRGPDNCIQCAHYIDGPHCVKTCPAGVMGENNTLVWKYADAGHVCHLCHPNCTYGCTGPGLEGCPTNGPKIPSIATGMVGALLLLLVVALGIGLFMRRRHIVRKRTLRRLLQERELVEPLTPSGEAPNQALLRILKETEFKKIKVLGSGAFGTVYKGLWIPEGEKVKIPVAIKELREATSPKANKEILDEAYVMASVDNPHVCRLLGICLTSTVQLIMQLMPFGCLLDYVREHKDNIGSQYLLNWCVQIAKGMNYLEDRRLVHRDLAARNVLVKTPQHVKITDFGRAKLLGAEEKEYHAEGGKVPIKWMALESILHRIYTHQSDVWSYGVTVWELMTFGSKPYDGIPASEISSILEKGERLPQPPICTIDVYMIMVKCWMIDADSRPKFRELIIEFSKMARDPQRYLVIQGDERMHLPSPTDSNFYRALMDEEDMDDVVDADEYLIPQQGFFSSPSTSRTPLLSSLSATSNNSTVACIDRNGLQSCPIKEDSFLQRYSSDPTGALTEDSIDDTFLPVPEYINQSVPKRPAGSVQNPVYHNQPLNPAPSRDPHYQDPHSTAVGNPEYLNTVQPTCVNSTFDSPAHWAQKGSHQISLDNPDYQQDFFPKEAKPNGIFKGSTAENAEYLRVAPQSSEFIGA
Summary of the method: as §1

[3] = target: T3, various mutants of kinase EGFR (BaF3 cell lines stably transfected with kinase) (Homo sapiens, UniProt P00533, T790M/C797S, form not given)
T3 construct: other: BaF3 cells stably transfected with EGFR Δ19Del/T790M/C797S; MTS, 48; other: BaF3 cell line stably transfected with EGFR Δ19Del/T790M/C7
T3 sequence (P00533 with tags, fused parts or gaps DEL746-750/T790M/C797S, form open): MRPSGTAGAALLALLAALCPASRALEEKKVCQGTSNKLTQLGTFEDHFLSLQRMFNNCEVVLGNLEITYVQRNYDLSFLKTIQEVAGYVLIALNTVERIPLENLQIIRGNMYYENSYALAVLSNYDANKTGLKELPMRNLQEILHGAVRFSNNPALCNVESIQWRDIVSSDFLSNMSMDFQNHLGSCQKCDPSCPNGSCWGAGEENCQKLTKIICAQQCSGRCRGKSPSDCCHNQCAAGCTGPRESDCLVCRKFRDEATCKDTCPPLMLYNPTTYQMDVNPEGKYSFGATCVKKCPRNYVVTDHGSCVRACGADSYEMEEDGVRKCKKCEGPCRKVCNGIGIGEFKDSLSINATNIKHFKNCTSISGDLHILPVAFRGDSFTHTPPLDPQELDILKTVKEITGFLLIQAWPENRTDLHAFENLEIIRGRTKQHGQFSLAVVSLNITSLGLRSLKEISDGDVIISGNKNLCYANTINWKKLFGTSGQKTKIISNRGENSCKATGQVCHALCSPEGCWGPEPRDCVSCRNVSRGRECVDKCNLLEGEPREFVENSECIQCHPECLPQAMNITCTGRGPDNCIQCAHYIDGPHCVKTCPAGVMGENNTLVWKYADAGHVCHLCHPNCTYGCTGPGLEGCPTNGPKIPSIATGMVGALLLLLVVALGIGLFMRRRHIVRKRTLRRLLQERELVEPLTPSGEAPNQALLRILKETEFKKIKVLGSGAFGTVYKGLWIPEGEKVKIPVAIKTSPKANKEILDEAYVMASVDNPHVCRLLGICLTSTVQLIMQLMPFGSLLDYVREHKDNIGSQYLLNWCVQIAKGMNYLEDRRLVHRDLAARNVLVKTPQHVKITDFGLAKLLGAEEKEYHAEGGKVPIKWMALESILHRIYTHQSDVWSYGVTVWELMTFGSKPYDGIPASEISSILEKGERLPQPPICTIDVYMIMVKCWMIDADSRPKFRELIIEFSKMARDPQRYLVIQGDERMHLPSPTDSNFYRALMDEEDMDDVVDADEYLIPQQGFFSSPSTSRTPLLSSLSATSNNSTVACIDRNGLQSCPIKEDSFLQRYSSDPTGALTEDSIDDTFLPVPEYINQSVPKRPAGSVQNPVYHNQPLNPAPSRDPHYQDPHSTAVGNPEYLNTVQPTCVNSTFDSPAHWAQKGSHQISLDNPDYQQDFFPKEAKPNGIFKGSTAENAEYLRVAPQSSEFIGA
Summary of the method: as §1

[4] = target: T4, various mutants of kinase EGFR (BaF3 cell lines stably transfected with kinase) (Homo sapiens, UniProt P00533)
T4 construct: other: BaF3 cells stably transfected with EGFR Δ19Del; MTS, 48 h; other: BaF3 cell line stably transfected with EGFR Δ19Del
Summary of the method: as §1

[5] = target: T5, various mutants of kinase EGFR (BaF3 cell lines stably transfected with kinase) (Homo sapiens, UniProt P00533, C797S/L858R/T790M)
T5 construct: expressed in transfected cells; host or cells: BaF3
T5 sequence (P00533 25-1210 T790M/C797S/L858R): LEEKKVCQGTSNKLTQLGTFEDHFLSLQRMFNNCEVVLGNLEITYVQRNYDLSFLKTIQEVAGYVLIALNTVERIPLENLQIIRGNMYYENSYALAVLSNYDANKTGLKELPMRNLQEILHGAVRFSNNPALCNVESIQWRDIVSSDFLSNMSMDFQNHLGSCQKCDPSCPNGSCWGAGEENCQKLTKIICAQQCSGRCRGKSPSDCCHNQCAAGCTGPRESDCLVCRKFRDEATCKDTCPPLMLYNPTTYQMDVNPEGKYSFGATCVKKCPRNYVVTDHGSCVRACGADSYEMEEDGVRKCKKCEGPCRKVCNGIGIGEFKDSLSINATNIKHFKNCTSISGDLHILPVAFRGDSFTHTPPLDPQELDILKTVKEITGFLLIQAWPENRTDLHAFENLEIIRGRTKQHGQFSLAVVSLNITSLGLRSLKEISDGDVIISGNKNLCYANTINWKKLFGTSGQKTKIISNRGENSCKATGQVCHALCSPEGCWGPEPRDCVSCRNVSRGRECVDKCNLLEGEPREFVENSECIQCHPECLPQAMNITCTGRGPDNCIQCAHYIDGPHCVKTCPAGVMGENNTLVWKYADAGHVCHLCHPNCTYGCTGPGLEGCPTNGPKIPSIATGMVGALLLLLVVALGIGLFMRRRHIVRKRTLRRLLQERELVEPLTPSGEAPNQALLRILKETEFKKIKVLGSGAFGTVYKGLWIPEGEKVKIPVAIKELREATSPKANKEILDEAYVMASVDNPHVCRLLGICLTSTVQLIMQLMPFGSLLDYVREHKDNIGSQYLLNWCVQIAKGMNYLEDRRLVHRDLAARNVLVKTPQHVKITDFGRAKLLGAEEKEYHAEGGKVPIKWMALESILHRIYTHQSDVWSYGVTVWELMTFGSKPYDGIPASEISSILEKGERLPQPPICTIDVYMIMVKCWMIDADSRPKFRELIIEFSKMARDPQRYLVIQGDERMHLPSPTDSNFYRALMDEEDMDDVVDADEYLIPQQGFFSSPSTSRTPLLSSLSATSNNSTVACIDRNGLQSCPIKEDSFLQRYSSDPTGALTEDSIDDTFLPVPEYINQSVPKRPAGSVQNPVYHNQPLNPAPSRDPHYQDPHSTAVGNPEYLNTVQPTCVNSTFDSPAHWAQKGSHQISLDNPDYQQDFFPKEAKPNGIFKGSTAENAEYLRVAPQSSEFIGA
Summary of the method: as §1

[6] = target: T6, various mutants of kinase EGFR (BaF3 cell lines stably transfected with kinase) (Homo sapiens, UniProt P00533, T790M, form not given)
T6 construct: other: BaF3 cells stably transfected with EGFR Δ19Del/T790M; MTS, 48 h; other: BaF3 cell line stably transfected with EGFR Δ19Del/T790M; MTS, 48
T6 sequence (P00533 with tags, fused parts or gaps DEL746-750/T790M, form open): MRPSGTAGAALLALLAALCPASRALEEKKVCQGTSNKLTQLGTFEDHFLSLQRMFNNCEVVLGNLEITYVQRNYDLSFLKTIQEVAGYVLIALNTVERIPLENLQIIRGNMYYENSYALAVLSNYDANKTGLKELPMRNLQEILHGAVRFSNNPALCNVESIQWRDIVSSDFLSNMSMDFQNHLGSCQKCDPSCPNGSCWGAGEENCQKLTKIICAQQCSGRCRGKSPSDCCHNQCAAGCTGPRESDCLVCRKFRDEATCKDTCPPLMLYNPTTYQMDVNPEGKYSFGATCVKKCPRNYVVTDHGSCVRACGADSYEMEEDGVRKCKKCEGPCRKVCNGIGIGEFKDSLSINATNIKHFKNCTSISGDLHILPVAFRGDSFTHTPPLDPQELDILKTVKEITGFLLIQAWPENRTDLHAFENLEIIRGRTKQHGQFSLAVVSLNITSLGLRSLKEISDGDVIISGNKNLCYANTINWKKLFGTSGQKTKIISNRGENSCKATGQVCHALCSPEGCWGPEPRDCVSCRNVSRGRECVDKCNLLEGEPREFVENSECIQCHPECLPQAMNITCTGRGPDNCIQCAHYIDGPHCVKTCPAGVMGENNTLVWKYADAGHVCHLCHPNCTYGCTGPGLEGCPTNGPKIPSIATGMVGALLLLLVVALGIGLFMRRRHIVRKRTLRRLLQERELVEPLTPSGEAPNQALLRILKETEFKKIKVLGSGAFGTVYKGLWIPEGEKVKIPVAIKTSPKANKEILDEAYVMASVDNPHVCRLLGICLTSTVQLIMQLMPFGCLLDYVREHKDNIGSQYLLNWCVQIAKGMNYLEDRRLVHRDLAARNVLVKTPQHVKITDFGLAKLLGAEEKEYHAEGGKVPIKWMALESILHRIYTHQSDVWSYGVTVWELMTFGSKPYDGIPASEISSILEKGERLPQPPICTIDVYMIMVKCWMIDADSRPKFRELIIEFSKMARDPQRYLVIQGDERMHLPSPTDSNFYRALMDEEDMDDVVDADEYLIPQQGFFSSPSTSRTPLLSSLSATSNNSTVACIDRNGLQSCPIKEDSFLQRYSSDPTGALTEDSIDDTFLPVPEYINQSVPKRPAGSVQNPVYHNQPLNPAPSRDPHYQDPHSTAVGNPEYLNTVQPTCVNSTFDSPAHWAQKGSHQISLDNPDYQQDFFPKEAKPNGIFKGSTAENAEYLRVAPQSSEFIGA
Summary of the method: as §1

[7] = BaF3 cells stably transfected with EGFR L858R, read-out: IC50, growth inhibition, L858R
[8] = BaF3 cells stably transfected with EGFR L858R/T790M, read-out: IC50, growth inhibition, L858R/T790M
[9] = BaF3 cells stably transfected with EGFR Δ19Del/T790M/C797S, read-out: IC50, growth inhibition, Δ19Del/T790M/C797S
[10] = BaF3 cells stably transfected with EGFR Δ19Del, read-out: IC50, growth inhibition, Δ19Del
[11] = BaF3 cells stably transfected with EGFR L858R/T790M/C797S, read-out: IC50, growth inhibition, L858R/T790M/C797S
[12] = BaF3 cells stably transfected with EGFR Δ19Del/T790M, read-out: IC50, growth inhibition, Δ19Del/T790M
[13] = BaF3 cell line stably transfected with EGFR L858R, read-out: L858R growth inhibitory activity IC50
[14] = BaF3 cell line stably transfected with EGFR L858R/T790M, read-out: L858R/ T790M growth inhibitory activity IC50
[15] = BaF3 cell line stably transfected with EGFR Δ19Del/T790M/C797S, read-out: Δ19Del/T790M/ C797S growth inhibitory activity IC50
[16] = BaF3 cell line stably transfected with EGFR Δ19Del, read-out: Δ19Del growth inhibitory activity IC50
[17] = BaF3 cell line stably transfected with EGFR L858R/T790M/C797S, read-out: L858R/T790M/ C797S growth inhibitory activity IC50
[18] = BaF3 cell line stably transfected with EGFR Δ19Del/T790M, read-out: Δ19Del/ T790M growth inhibitory activity IC50

Measured: IC50

COc1cc(N2CCC(N(C)C)CC2)c(C)cc1Nc1ncc(Br)c(Nc2ccc3nccnc3c2N(C)S(C)(=O)=O)n1 [Compound I-13]
≤ 50 nM: [1]; [7] | [2]; [8] | [3]; [9] | [4]; [10] | [5]; [11] | [6]; [12]

COc1cc(N2CCC(N(C)C)CC2)c(C)cc1Nc1ncc([N+](=O)[O-])c(Nc2ccc3nccnc3c2N(C)S(C)(=O)=O)n1 [Compound I-192]
≤ 50 nM: [2]; [8] | [3]; [9] | [4]; [10] | [5]; [11] | [6]; [12]
50 to 500 nM: [1]; [7]

CCc1cc(Nc2ncc(Cl)c(Nc3ccc4nccnc4c3N(C)S(C)(=O)=O)n2)c(OC)nc1N1CCC(N2CCN(C)CC2)CC1 [Compound I-21]
50 to 500 nM: [4]; [10]
≤ 50 nM: [1]; [7] | [2]; [8] | [3]; [9] | [5]; [11] | [6]; [12]

CCc1cc(Nc2ncc(CC)c(Nc3ccc4nccnc4c3N(C)S(C)(=O)=O)n2)c(OC)cc1N1CCN(C)CC1 [Compound I-322]
≤ 50 nM: [1]; [13] | [2]; [14] | [3]; [15] | [4]; [16] | [5]; [17] | [6]; [18]

CN(c1c(Nc2nc(Nc3cccc(N4CCC(O)CC4)c3)ncc2Br)ccc2nccnc12)S(C)(=O)=O [Compound I-76]
500 to 2500 nM: [1]; [7]
50 to 500 nM: [3]; [9] | [4]; [10] | [6]; [12]
≤ 50 nM: [2]; [8] | [5]; [11]

COc1cc(N2CCC(N(C)C)C2)c(C)cc1Nc1ncc(C2CC2)c(Nc2ccc3nccnc3c2N(C)S(C)(=O)=O)n1 (stereo not drawn) [Compound I-274]
≤ 50 nM: [3]; [9]
50 to 500 nM: [1]; [7] | [2]; [8] | [4]; [10] | [5]; [11] | [6]; [12]

C=Cc1cc(Nc2ncc(Br)c(Nc3ccc4nccnc4c3N(C3CC3)S(C)(=O)=O)n2)c(OC(F)(F)F)cc1N1CCC(N2CCN(C)CC2)CC1 [Compound I-307]
50 to 500 nM: [2]; [14] | [3]; [15] | [5]; [17] | [6]; [18]
500 to 2500 nM: [1]; [13] | [4]; [16]

CCc1cc(Nc2ncc(C3CC3)c(Nc3ccc4nccnc4c3N(C)S(C)(=O)=O)n2)ccc1N1CCC(N2CCN(C)CC2)CC1 [Compound I-293]
50 to 500 nM: [1]; [7] | [3]; [9] | [4]; [10] | [5]; [11]
≤ 50 nM: [2]; [8] | [6]; [12]

C=Cc1cc(Nc2nc(Nc3ccc4nccnc4c3N(C)S(C)(=O)=O)c3occc3n2)c(OC(F)(F)F)cc1N1CCC(N2CCN(C)CC2)CC1 [II-1-42]
50 to 500 nM: [1]; [13] | [2]; [14] | [3]; [15] | [4]; [16] | [5]; [17] | [6]; [18]

CCc1cc(Nc2ncc(Cl)c(Nc3ccc4nccnc4c3N(CC)S(C)(=O)=O)n2)c(OC)cc1N1CCC(N(C)C)CC1 [Compound I-112]
≤ 50 nM: [1]; [7] | [2]; [8] | [3]; [9] | [4]; [10] | [5]; [11] | [6]; [12]

COc1ccc(CN2CCN(C)CC2)cc1Nc1ncc(Br)c(Nc2ccc3nccnc3c2N(C)S(C)(=O)=O)n1 [Compound I-83]
500 to 2500 nM: [3]; [9] | [5]; [11] | [6]; [12]
50 to 500 nM: [1]; [7] | [2]; [8] | [4]; [10]

C=Cc1cc(Nc2ncc(C3CC3)c(Nc3ccc4nccnc4c3N(C)S(C)(=O)=O)n2)c(OC(F)(F)F)cc1N1CCC(N2CCN(C)CC2)CC1 [Compound I-271]
50 to 500 nM: [1]; [7] | [2]; [8] | [4]; [10] | [6]; [12]
≤ 50 nM: [3]; [9] | [5]; [11]

COc1cc(N2CCC(N3CCN(C)CC3)CC2)ccc1Nc1nc(Nc2ccc3nccnc3c2N(C)S(C)(=O)=O)c2cc[nH]c2n1 [II-2-22]
≤ 50 nM: [2]; [14] | [3]; [15]
50 to 500 nM: [4]; [16] | [5]; [17] | [6]; [18]
500 to 2500 nM: [1]; [13]

CN(c1c(Nc2nc(Nc3ccn(C)n3)ncc2Br)ccc2nccnc12)S(C)(=O)=O [Compound I-66]
50 to 500 nM: [1]; [7] | [3]; [9] | [4]; [10] | [5]; [11] | [6]; [12]
≤ 50 nM: [2]; [8]

CCc1cc(Nc2ncc(Cl)c(Nc3ccc4nccnc4c3N(C3CC3)S(C)(=O)=O)n2)c(OC)cc1N1CCC(N2CCN(C)CC2)CC1 [Compound I-160]
≤ 50 nM: [2]; [8] | [3]; [9] | [4]; [10] | [5]; [11] | [6]; [12]
50 to 500 nM: [1]; [7]

CCc1cc(Nc2ncc(Cl)c(Nc3ccc4nccnc4c3N(C)S(=O)(=O)CC)n2)c(OC)cc1N1CCC(N(C)C)C1 (stereo not drawn) [Compound I-118]
≤ 50 nM: [1]; [7] | [2]; [8] | [3]; [9] | [4]; [10] | [5]; [11] | [6]; [12]

C=Cc1cc(Nc2ncc(Cl)c(Nc3ccc4nccnc4c3N(C)S(C)(=O)=O)n2)c(OC(F)(F)F)cc1N1CCC(N2CCN(C)CC2)CC1 [Compound I-23]
≤ 50 nM: [1]; [7] | [2]; [8] | [3]; [9] | [4]; [10] | [5]; [11] | [6]; [12]

CCS(=O)(=O)N(C)c1c(Nc2nc(Nc3cc(N4CCC(O)CC4)ccc3OC)ncc2Cl)ccc2nccnc12 [Compound I-372]
≤ 50 nM: [1]; [13] | [2]; [14] | [3]; [15] | [5]; [17]
50 to 500 nM: [4]; [16] | [6]; [18]

COc1cc(N2CCC(N3CCN(C)CC3)CC2)c(CC2CC2)cc1Nc1ncc(Cl)c(Nc2ccc3nccnc3c2N(C)S(=O)(=O)C(F)(F)F)n1 [Compound I-264]
500 to 2500 nM: [1]; [7] | [2]; [8] | [4]; [10] | [6]; [12]
50 to 500 nM: [3]; [9] | [5]; [11]

COc1cc(N2CCC(N3CCN(C)CC3)CC2)ccc1Nc1nc(Nc2ccc3nccnc3c2N(C)S(C)(=O)=O)c2sccc2n1 [II-1-1]
50 to 500 nM: [3]; [15]
500 to 2500 nM: [1]; [13] | [2]; [14] | [4]; [16] | [5]; [17] | [6]; [18]

Cc1cc2c(cc1Nc1ncc(Br)c(Nc3ccc4nccnc4c3N(C)S(C)(=O)=O)n1)CN(C)CC2 [Compound I-92]
50 to 500 nM: [1]; [7] | [2]; [8] | [3]; [9] | [4]; [10] | [6]; [12]
≤ 50 nM: [5]; [11]

COc1cc(N2CCC(N3CCN(C)CC3)CC2)c(CC2CC2)cc1Nc1nc(Nc2ccc3nccnc3c2N(C)S(C)(=O)=O)c2occc2n1 [II-1-43]
500 to 2500 nM: [4]; [16] | [6]; [18]
50 to 500 nM: [1]; [13] | [2]; [14] | [3]; [15] | [5]; [17]

COc1nc(N2CCC(N3CCN(C)CC3)CC2)c(C)cc1Nc1ncc(Br)c(Nc2ccc3nccnc3c2N(C2CC2)S(C)(=O)=O)n1 [Compound I-306]
50 to 500 nM: [1]; [13] | [2]; [14] | [6]; [18]
500 to 2500 nM: [3]; [15] | [4]; [16] | [5]; [17]

COc1cc(N2CCC(N(C)C)C2)ccc1Nc1ncc(Br)c(Nc2ccc3nccnc3c2N(C)S(C)(=O)=O)n1 (stereo not drawn) [Compound I-43]
≤ 50 nM: [2]; [8] | [3]; [9] | [5]; [11] | [6]; [12]
50 to 500 nM: [1]; [7] | [4]; [10]

COc1nc(N2CCC(N3CCN(C)CC3)CC2)ccc1Nc1ncc(Cl)c(Nc2ccc3nccnc3c2N(C2CC2)S(C)(=O)=O)n1 [Compound I-239]
≤ 50 nM: [3]; [9]
50 to 500 nM: [1]; [7] | [2]; [8] | [4]; [10] | [5]; [11] | [6]; [12]

CCN(c1c(Nc2nc(Nc3cc(N4CCC(O)CC4)ccc3OC)ncc2Br)ccc2nccnc12)S(C)(=O)=O [Compound I-378]
50 to 500 nM: [1]; [13] | [4]; [16]
≤ 50 nM: [2]; [14] | [3]; [15] | [5]; [17] | [6]; [18]

CCc1cc(Nc2nc(Nc3ccc4nccnc4c3N(C)S(C)(=O)=O)c3[nH]ccc3n2)c(OC)cc1N1CCC(N(C)C)CC1 [II-1-32]
50 to 500 nM: [2]; [14] | [3]; [15] | [5]; [17]
500 to 2500 nM: [1]; [13] | [4]; [16] | [6]; [18]
